US20080009418A1, “Selective Inhibitors” (Alchemia LTD., priority 2004, published 2008)

Experiments:
Conditions in all cases: compound at 10 μM
[1] = target: T1, Human Melanocortin (MC3) (Homo sapiens, UniProt P41968); test: Radioligand binding, human melanocortin MC3 membranes, FlashPlate, [125I]-NDP-αMSH
T1 construct: purchased Perkin Elmer Biosignal
Procedure, shortened: (§1)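 Cloned human receptor membranes were coated onto FlashPlate wells and incubated with radioligand and compound (added from a 0.5 mM DMSO daughter plate) for 1 hour at room temperature in the dark. Scintillation counting gave percent inhibition, with DMSO defining total and reference ligand defining non-specific binding.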

[2] = target: T2, Human neuropeptide Y (NPY-Y1) (Homo sapiens, UniProt P25929); test: Radioligand binding, human neuropeptide Y NPY-Y1 membranes, FlashPlate, [125I]-PYY
T2 construct: purchased Perkin Elmer Biosignal
T2 sequence (P25929 1-384): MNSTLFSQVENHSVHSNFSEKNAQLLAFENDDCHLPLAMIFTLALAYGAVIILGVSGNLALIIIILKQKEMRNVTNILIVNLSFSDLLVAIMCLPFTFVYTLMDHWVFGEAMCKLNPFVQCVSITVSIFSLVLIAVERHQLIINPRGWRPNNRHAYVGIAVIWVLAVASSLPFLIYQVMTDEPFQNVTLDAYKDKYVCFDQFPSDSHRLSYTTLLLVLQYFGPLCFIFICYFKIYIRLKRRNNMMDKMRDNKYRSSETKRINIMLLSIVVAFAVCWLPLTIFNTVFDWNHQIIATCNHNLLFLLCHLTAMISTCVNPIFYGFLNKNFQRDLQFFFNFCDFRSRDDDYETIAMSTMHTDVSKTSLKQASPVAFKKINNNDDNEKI
Procedure, shortened: as §1

[3] = target: T3, Human Melanocortin (MC4) (Homo sapiens, UniProt P32245); test: Radioligand binding, human melanocortin MC4 membranes, FlashPlate, [125I]-NDP-αMSH
T3 construct: purchased Perkin Elmer Biosignal
T3 sequence (P32245 whole entry): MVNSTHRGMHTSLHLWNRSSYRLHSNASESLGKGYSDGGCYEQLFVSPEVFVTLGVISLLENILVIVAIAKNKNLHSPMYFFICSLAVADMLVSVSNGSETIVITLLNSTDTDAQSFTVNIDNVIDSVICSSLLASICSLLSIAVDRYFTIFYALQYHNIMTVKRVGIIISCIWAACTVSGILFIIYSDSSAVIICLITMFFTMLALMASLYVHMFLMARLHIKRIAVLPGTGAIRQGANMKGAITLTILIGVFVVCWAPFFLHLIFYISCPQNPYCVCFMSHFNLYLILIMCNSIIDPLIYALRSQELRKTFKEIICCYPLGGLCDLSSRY
Procedure, shortened: as §1

[4] = target: T4, Human melanocortin (MC5) (Homo sapiens, UniProt P33032); test: Radioligand binding, human melanocortin MC5 membranes, FlashPlate, [125I]-NDP-αMSH
T4 construct: purchased Perkin Elmer Biosignal
T4 sequence (P33032 whole entry): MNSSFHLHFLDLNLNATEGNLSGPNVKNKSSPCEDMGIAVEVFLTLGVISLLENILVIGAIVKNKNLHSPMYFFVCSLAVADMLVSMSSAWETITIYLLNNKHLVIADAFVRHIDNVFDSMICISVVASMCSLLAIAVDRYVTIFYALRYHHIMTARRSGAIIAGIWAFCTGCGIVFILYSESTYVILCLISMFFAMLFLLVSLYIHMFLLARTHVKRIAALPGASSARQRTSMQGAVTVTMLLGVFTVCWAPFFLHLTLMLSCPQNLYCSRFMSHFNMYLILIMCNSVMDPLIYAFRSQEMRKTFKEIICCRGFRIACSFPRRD
Procedure, shortened: as §1

[5] = target: T5, Human opioid (ORL1) (Homo sapiens, UniProt P41146); test: Radioligand binding, human opioid ORL1 membranes, FlashPlate, [125I]-Nociceptin
T5 construct: purchased Perkin Elmer Biosignal
T5 sequence (P41146 whole entry): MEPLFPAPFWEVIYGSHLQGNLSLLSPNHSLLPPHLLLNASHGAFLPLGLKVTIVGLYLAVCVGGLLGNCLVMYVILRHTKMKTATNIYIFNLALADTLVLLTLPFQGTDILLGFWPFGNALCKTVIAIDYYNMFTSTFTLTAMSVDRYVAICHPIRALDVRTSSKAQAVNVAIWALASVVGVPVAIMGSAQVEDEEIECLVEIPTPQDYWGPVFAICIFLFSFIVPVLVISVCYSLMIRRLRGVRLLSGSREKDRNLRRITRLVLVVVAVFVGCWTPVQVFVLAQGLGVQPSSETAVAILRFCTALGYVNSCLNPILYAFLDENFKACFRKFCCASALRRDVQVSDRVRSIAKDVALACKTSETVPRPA
Procedure, shortened: as §1

[6] = target: T6, Human κ-Opioid (KOP) (Homo sapiens, UniProt P41145); test: Radioligand binding, human κ-opioid (KOP) membranes, filtration, [3H]-Diprenorphine
T6 construct: purchased Perkin Elmer Biosignal
T6 sequence (P41145 whole entry): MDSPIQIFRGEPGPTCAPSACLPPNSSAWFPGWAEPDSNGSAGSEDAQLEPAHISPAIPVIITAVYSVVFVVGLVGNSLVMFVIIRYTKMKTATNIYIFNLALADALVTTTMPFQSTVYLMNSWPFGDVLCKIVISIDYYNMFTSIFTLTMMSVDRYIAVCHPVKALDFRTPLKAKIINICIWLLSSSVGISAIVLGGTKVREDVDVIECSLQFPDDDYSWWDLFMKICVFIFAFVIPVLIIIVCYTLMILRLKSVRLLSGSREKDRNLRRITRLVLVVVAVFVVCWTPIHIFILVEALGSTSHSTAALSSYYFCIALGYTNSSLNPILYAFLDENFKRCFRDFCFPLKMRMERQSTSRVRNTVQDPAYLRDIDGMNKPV
Procedure, shortened: (§2)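 Membranes from cloned human receptors were incubated with compound and radioligand for 1 hour at room temperature. Bound ligand was collected on 0.3% PEI-soaked filters, washed with cold 50 mM Tris-HCl pH 7.4, and counted by scintillation. Percent inhibition was computed against DMSO totals and reference-ligand nonspecific wells.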

[7] = target: T7, Mouse urotensin (mUR2) (Mus musculus, UniProt Q8VIH9); test: Radioligand binding, mouse urotensin mUR2 membranes, FlashPlate, [125I]-Urotensin II
T7 construct: purchased Perkin Elmer Biosignal
T7 sequence (Q8VIH9 1-385): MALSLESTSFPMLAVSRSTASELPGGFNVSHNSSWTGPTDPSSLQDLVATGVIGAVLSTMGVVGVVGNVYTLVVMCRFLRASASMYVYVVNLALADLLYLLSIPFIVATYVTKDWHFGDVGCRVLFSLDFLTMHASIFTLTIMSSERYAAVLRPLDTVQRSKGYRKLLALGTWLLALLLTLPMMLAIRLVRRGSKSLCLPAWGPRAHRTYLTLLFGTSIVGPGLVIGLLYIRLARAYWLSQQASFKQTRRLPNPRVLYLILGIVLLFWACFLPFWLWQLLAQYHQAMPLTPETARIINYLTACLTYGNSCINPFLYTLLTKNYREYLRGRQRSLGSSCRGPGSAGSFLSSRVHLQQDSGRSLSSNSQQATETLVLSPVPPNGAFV
Procedure, shortened: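 Cloned mouse urotensin (mUR2) receptor membranes from Perkin Elmer Biosignal were immobilized in FlashPlate microplates using a proprietary coating. Each well got 19.5 μl buffer, then 0.5 μl of DMSO, reference ligand, or compound. Adding 5 μl of [125I]-Urotensin II, diluted to 5× final concentration in binding buffer, started binding. Plates were sealed with TopSeal-A and incubated 1 hour at room temperature in the dark. Wells were counted for 30 seconds each on a TopCount after a 60-second delay, and percentage inhibition was calculated.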

[8] = target: T8, Human μ-opioid (MOP) (Homo sapiens, UniProt P35372); test: Radioligand binding, human μ-opioid (MOP) membranes, FlashPlate, [3H]-Naloxone
T8 construct: purchased Perkin Elmer Biosignal
T8 sequence (P35372 whole entry): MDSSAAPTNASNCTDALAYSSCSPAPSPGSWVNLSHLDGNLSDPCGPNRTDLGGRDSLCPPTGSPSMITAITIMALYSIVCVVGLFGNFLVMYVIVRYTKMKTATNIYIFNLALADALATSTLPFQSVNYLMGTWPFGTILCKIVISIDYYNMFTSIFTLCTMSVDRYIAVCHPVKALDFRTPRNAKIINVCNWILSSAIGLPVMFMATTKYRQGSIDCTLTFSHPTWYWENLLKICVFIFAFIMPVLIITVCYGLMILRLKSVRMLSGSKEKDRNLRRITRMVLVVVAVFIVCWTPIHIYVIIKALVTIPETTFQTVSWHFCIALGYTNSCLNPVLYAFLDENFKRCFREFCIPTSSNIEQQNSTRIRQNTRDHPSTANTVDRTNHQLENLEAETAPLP
Procedure, shortened: as §1

[9] = target: T9, Human δ-opioid (DOP) (Homo sapiens, UniProt P41143); test: Radioligand binding, human δ-opioid (DOP) membranes, FlashPlate, [3H]-Bremazocine
T9 construct: purchased Perkin Elmer Biosignal
T9 sequence (P41143 whole entry): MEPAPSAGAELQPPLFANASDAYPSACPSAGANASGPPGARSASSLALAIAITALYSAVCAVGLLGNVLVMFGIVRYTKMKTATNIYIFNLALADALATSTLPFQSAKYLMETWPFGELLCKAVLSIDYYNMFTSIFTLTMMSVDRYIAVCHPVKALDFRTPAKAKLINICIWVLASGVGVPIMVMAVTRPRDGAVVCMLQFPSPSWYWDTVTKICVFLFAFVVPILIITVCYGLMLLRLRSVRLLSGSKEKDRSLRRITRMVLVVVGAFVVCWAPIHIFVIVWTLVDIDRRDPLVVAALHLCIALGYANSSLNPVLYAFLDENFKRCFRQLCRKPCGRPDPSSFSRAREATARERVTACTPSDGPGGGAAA
Procedure, shortened: as §1

[10] = target: T10, Human neurokinin (NK1) (Homo sapiens, UniProt P25103); test: Radioligand binding, human neurokinin NK1 membranes, filtration, [125I]-Substance P
T10 construct: purchased Perkin Elmer Biosignal
T10 sequence (P25103 whole entry): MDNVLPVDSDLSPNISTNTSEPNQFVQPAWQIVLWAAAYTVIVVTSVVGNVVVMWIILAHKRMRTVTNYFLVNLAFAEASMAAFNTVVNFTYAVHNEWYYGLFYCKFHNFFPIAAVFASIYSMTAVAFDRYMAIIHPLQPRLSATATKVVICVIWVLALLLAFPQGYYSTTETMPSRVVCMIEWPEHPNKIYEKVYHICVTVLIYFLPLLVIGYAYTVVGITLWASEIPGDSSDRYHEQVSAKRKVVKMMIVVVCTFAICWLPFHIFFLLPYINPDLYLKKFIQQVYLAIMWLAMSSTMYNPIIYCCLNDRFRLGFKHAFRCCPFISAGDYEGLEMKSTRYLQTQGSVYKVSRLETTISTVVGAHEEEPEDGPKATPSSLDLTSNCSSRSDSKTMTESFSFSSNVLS
Procedure, shortened: as §2

[11] = target: T11, Human melanin-concentrating hormone (MCH1) (Homo sapiens, UniProt Q99705); test: Radioligand binding, human melanin-concentrating hormone MCH1 membranes, FlashPlate, [125I]-S36057
T11 construct: purchased Perkin Elmer Biosignal
T11 sequence (Q99705 whole entry): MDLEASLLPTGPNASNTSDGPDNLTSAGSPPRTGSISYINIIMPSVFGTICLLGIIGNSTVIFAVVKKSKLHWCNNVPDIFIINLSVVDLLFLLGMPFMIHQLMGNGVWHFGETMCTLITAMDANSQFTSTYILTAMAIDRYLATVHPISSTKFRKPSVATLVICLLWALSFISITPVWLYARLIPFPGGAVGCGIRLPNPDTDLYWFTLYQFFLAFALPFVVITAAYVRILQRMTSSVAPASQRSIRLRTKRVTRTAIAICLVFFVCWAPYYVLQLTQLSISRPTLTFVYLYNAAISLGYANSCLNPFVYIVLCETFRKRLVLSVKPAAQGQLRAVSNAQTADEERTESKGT
Procedure, shortened: as §1

[12] = [125I]-NDP-αMSH, human MC3 membranes
[13] = [125I]-PYY, human NPY-Y1 membranes
[14] = [125I]-NDP-αMSH, human MC4 membranes
[15] = [125I]-NDP-αMSH, human MC5 membranes
[16] = [125I]-Nociceptin, human ORL1 membranes
[17] = [3H]-Diprenorphine, human KOP membranes
[18] = [125I]-Urotensin II, mouse mUR2 membranes
[19] = [3H]-Naloxone, human MOP membranes
[20] = [3H]-Bremazocine, human DOP membranes
[21] = [125I]-Substance P, human NK1 membranes
[22] = [125I]-S36057, human MCH1 membranes

T1 sequence (P41968 whole entry): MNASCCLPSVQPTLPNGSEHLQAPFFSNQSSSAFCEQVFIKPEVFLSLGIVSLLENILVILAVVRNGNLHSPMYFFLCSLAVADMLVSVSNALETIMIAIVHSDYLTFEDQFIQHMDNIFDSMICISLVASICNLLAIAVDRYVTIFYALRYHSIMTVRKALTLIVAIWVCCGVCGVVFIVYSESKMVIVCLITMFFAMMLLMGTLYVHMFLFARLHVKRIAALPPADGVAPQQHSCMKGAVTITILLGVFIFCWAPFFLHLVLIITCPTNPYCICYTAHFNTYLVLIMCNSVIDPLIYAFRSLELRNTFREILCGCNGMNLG

N=C(N)NCC(=O)NC1C(OCc2ccc(Cl)cc2)OC(COCc2ccc(Cl)cc2)C(O)C1OCc1ccc2ccccc2c1 (stereo not shown) [compound 422]
A3: inhibition of radioligand binding [1, 12]: + (“+” indicates greater than 50% inhibition at 10 μM) | A9: inhibition of radioligand binding [2, 13]: − (“−” indicates less than 50% inhibition at 10 μM) | A4: inhibition of radioligand binding [3, 14]: + (“+” indicates greater than 50% inhibition at 10 μM) | A5: inhibition of radioligand binding [4, 15]: + (“+” indicates greater than 50% inhibition at 10 μM) | A10: inhibition of radioligand binding [5, 16]: + (“+” indicates greater than 50% inhibition at 10 μM) | A2: inhibition of radioligand binding [6, 17]: − (“−” indicates less than 50% inhibition at 10 μM) | A11: inhibition of radioligand binding [7, 18]: − (“−” indicates less than 50% inhibition at 10 μM) | A7: inhibition of radioligand binding [8, 19]: − (“−” indicates less than 50% inhibition at 10 μM) | A1: inhibition of radioligand binding [9, 20]: − (“−” indicates less than 50% inhibition at 10 μM) | A8: inhibition of radioligand binding [10, 21]: + (“+” indicates greater than 50% inhibition at 10 μM) | A6: inhibition of radioligand binding [11, 22]: + (“+” indicates greater than 50% inhibition at 10 μM)

NCCC(=O)NC1C(OCc2ccc3ccccc3c2)OC(COCc2ccc3ccccc3c2)C(O)C1OCc1ccc2ccccc2c1 (stereo not shown) [compound 384]
A3: inhibition of radioligand binding [1, 12]: + (“+” indicates greater than 50% inhibition at 10 μM) | A9: inhibition of radioligand binding [2, 13]: − (“−” indicates less than 50% inhibition at 10 μM) | A4: inhibition of radioligand binding [3, 14]: + (“+” indicates greater than 50% inhibition at 10 μM) | A5: inhibition of radioligand binding [4, 15]: + (“+” indicates greater than 50% inhibition at 10 μM) | A10: inhibition of radioligand binding [5, 16]: − (“−” indicates less than 50% inhibition at 10 μM) | A2: inhibition of radioligand binding [6, 17]: − (“−” indicates less than 50% inhibition at 10 μM) | A11: inhibition of radioligand binding [7, 18]: − (“−” indicates less than 50% inhibition at 10 μM) | A7: inhibition of radioligand binding [8, 19]: − (“−” indicates less than 50% inhibition at 10 μM) | A1: inhibition of radioligand binding [9, 20]: − (“−” indicates less than 50% inhibition at 10 μM) | A8: inhibition of radioligand binding [10, 21]: + (“+” indicates greater than 50% inhibition at 10 μM) | A6: inhibition of radioligand binding [11, 22]: + (“+” indicates greater than 50% inhibition at 10 μM)

CO[C@H]1[C@H](O)[C@@H](COCc2ccc(Cl)cc2)OC(OCc2ccc3ccccc3c2)[C@@H]1NC(=O)CCCN (stereo partly shown) [compound 80]
A3 radioligand binding inhibition ([1]; human melanocortin MC3 membranes): − (“−” indicates less than 50% inhibition at 10 μM) | A9 radioligand binding inhibition ([2]; human NPY-Y1 membranes): − (“−” indicates less than 50% inhibition at 10 μM) | A4 radioligand binding inhibition ([3]; human melanocortin MC4 membranes): + (“+” indicates greater than 50% inhibition at 10 μM) | A5 radioligand binding inhibition ([4]; human melanocortin MC5 membranes): + (“+” indicates greater than 50% inhibition at 10 μM) | A10 radioligand binding inhibition ([5]; human ORL1 membranes): − (“−” indicates less than 50% inhibition at 10 μM) | A2 radioligand binding inhibition ([6]; human κ-opioid (KOP) membranes): − (“−” indicates less than 50% inhibition at 10 μM) | A11 radioligand binding inhibition ([7]; mouse urotensin mUR2 membranes): − (“−” indicates less than 50% inhibition at 10 μM) | A7 radioligand binding inhibition ([8]; human μ-opioid (MOP) membranes): − (“−” indicates less than 50% inhibition at 10 μM) | A1 radioligand binding inhibition ([9]; human δ-opioid (DOP) membranes): − (“−” indicates less than 50% inhibition at 10 μM) | A8 radioligand binding inhibition ([10]; human neurokinin NK1 membranes): + (“+” indicates greater than 50% inhibition at 10 μM) | A6 radioligand binding inhibition ([11]; human MCH1 membranes): − (“−” indicates less than 50% inhibition at 10 μM)

CO[C@H]1[C@H](O)[C@@H](COCc2ccc3ccccc3c2)OC(OCCc2ccccc2)[C@@H]1NC(=O)CCCN (stereo partly shown) [compound 115]
A3 radioligand binding, percentage inhibition ([1]; [125I]-NDP-αMSH): − (“−” indicates less than 50% inhibition at 10 μM) | A9 radioligand binding, percentage inhibition ([2]; [125I]-PYY): − (“−” indicates less than 50% inhibition at 10 μM) | A4 radioligand binding, percentage inhibition ([3]; [125I]-NDP-αMSH): − (“−” indicates less than 50% inhibition at 10 μM) | A5 radioligand binding, percentage inhibition ([4]; [125I]-NDP-αMSH): − (“−” indicates less than 50% inhibition at 10 μM) | A10 radioligand binding, percentage inhibition ([5]; [125I]-Nociceptin): − (“−” indicates less than 50% inhibition at 10 μM) | A2 radioligand binding, percentage inhibition ([6]; [3H]-Diprenorphine): − (“−” indicates less than 50% inhibition at 10 μM) | A11 radioligand binding, percentage inhibition ([7]; [125I]-Urotensin II): − (“−” indicates less than 50% inhibition at 10 μM) | A7 radioligand binding, percentage inhibition ([8]; [3H]-Naloxone): − (“−” indicates less than 50% inhibition at 10 μM) | A1 radioligand binding, percentage inhibition ([9]; [3H]-Bremazocine): − (“−” indicates less than 50% inhibition at 10 μM) | A8 radioligand binding, percentage inhibition ([10]; [125I]-Substance P): + (“+” indicates greater than 50% inhibition at 10 μM) | A6 radioligand binding, percentage inhibition ([11]; [125I]-S36057): − (“−” indicates less than 50% inhibition at 10 μM)

COCC1OC(OCc2ccc3ccccc3c2)C(NC(=O)CNC(=N)N)C(OCc2ccccc2)C1O (stereo not shown) [compound 230]
A3: inhibition of radioligand binding ([1]; [125I]-NDP-αMSH, FlashPlate): − (“−” indicates less than 50% inhibition at 10 μM) | A9: inhibition of radioligand binding ([2]; [125I]-PYY, FlashPlate): − (“−” indicates less than 50% inhibition at 10 μM) | A4: inhibition of radioligand binding ([3]; [125I]-NDP-αMSH, FlashPlate): − (“−” indicates less than 50% inhibition at 10 μM) | A5: inhibition of radioligand binding ([4]; [125I]-NDP-αMSH, FlashPlate): + (“+” indicates greater than 50% inhibition at 10 μM) | A10: inhibition of radioligand binding ([5]; [125I]-Nociceptin, FlashPlate): − (“−” indicates less than 50% inhibition at 10 μM) | A2: inhibition of radioligand binding ([6]; [3H]-Diprenorphine, filtration): − (“−” indicates less than 50% inhibition at 10 μM) | A11: inhibition of radioligand binding ([7]; [125I]-Urotensin II, FlashPlate): − (“−” indicates less than 50% inhibition at 10 μM) | A7: inhibition of radioligand binding ([8]; [3H]-Naloxone, FlashPlate): − (“−” indicates less than 50% inhibition at 10 μM) | A1: inhibition of radioligand binding ([9]; [3H]-Bremazocine, FlashPlate): − (“−” indicates less than 50% inhibition at 10 μM) | A8: inhibition of radioligand binding ([10]; [125I]-Substance P, filtration): + (“+” indicates greater than 50% inhibition at 10 μM) | A6: inhibition of radioligand binding ([11]; [125I]-S36057, FlashPlate): − (“−” indicates less than 50% inhibition at 10 μM)
